For data set [1], the system named is Staphylococcus aureus ATCC 6538. The class given is cell-based.
Experimental: (§4) MIC denotes the lowest concentration of an antimicrobial agent that can inhibit the growth of bacteria after overnight incubation.
(§5) Bacteria were grown in their respective media (Table 2 above) overnight at 37° C. or room temperature with constant shaking and then diluted to 10^6 CFU/ml in their respective medium. Stock solutions of peptides at 0.68 mM were prepared in distilled water. Bacteria and peptide were incubated (50 μl: 50 μl) to make the final peptide concentrations (0.68, 3.4, 6.8, 13.7, 34.1, 68.3, 136.5 μM) in a 96-microtitre plate and incubated for 24 h with constant shaking. […] Absorbance at 600 nm was detected every 3 h up to 24 h to obtain the growth curves. The minimal inhibition concentration (MIC) was defined as the lowest concentration of an antimicrobial agent that could inhibit the growth of bacteria after overnight incubation.
Data set [2] in a line: Toxicity in adult Medaka fish, intraperitoneal injection. The class given is in vivo. To be noted: intraperitoneally injected with 1 μg, up to 14 days. As for the experimental part:
(§1) FIG. 11A is a plot showing the effect of Peptide A on viability of cultured mammalian cells, incubated for 48 h in the presence of Peptide A at different concentrations (μg/ml), as determined by MTT assay. Cell viability represented as peptide treated cell numbers over medium-only control. Statistically significant difference as compared to controls (*: p<0.05, **: p<0.01, n=4). FIG. 11B is a plot showing the ability of Peptide A to protect medaka from lethal challenge of E. tarda ([…]). Medaka was injected with 1 μl of Peptide A (0.68 mM), with 1 μl of E. tarda (10^7 CFU/ml) and Peptide A (0.68 mM) mixture, or with E. tarda alone (1 μl of E. tarda:10^7 CFU/ml). […] 20 fish per group. Log-rank (Mantel-Cox) test was applied for the comparison of survival curves (**: p<0.01).
The efficacy of the synthesized AMP to protect medaka against infection was characterized using host resistance assays with intraperitoneal (i.p.) injection of bacteria using a micro-injection machine (PV820 Pneumatic PicoPump). […] The number of dead fish was counted on a daily basis until two weeks after the injections.

Data set [3] concerns Aeromonas hydrophila ATCC 49140. Type of data set: cell-based.
Experimental: as §4, §5
Data set [4] concerns Escherichia coli BL21 (DE3). Type of data set: cell-based.
Experimental: as §4, §5
In data set [5] the test system is Staphylococcus aureus ATCC 29213. Type of data set: cell-based.
Experimental: as §4, §5
The test system of the next data set is E. coli PQ37. Briefly: SOS induction (chromotest). Type of data set: cell-based. Particulars: E. coli PQ37, 120 min; Peptide A 3.4 μM, Piscidin 3.77 μM. Here is the method:
(§2) Results are expressed as 2^(−Delta Delta C (T)). […] Results are expressed as 2^(−Delta Delta C (T)).
E. coli PQ37 (Genotype: Sfi A and Lac Z fusion, lac Z) was cultured in lysogeny broth (LB) that contained 57.2 μM of ampicillin overnight (37° C.) and subcultured through 20 dilutions on another day so that OD600 equals to 0.2-0.4. PQ37 was incubated in 0.3 ml AMP (3.4 μM) or Piscidin ([…], 3.77 μM) for 2 hours and then re-suspended in the same volume of Z-buffer (Na2HPO4.7H2O 16.1 g/l, NaH2PO4.2H2O 6.24 g/L, KCl 0.75 g/L, MgSO4.7H2O 0.246 g/L and b-mercaptoethanol 0.3% (v/v)) for carrying out a β-galactosidase assay (β-ga) and alkaline phosphatase assay (ap), respectively. The bacteria were lysed with 0.1 ml of 0.1% SDS and 0.15 ml of chloroform. For the β-ga assay, the reaction was started by adding 0.6 ml of ortho-Nitrophenyl-β-galactoside (ONPG; Catalog number 34055, ThermoFisher Scientific) for color development and then stopped with the addition of 2 ml of 1 M NaCO3 solution. For ap acsay, the reaction was started by adding 0.6 ml of para-Nitrophenylphosphate (PNPP; Catalog number 34045, ThermoFisher Scientific) for color development which was then terminated by the addition of 1 ml of 2 M HCl solution and 1 ml of 2 M Tri-HCl to restore the colour. The absorbance was read at 420 nm against a blank without bacteria. The induction factor (IF) was calculated as the ratio R(x)/R(0) (R(x)=β-g/ap determined for the tested peptide; R(0)=β-g/ap determined for the LB). Furacin (antibiotic) and Piscidin were chosen as the controls. Each experiment was performed in triplicate.

Data set [6] relates to Vibrio alginolyticus ATCC 33840. Type of data set: cell-based.
Experimental: as §4, §5
Another data set concerns Edwardsiella tarda PE210. The class given is cell-based.
The test system of a further data set is E. tarda. Briefly: Host resistance assay, Experiment Two: pre-injection 2 h before bacteria. Type of data set: in vivo, Medaka. To be noted: injected 2 h prior to E. tarda. Here is the method:
as §1
The efficacy of the synthesized AMP to protect medaka against infection was characterized using host resistance assays with intraperitoneal (i.p.) injection of bacteria using a micro-injection machine (PV820 Pneumatic PicoPump). In Experiment One, 80 medaka fish were used and divided into four groups (20 fish in each group, male, 6 months): (1) Group 1 was injected with only 1 μl of PBS in each fish; (2) Group 2 was injected with only 1 μl of novel AMP (0.68 mM) in each fish; (3) Group 3 was injected with 1 μl of bacteria (at a titer of 5×10^7 CFU/ml); and (4) bacteria and novel AMP were mixed for 5 min and then 1 μl of the mixture was injected into Group 4 (Bacteria: 5×10^7 CFU/ml, AMP: 0.68 mM). In Experiment Two, 60 fish were used and divided into three groups: each fish was injected with 1 μl of PBS, ampicillin (5.7 mM) or Peptide A (1.36 mM). The fish were anesthetized in MS222 for 30 s before microinjection. After two hours, 1 μl of bacteria (5×10^7 CFU/ml) was injected into the fish. All of the fishes were kept under a static condition of 26° C.±1° C., with 14:10 hrs of a light-dark cycle. The water was replaced every two days. The fish were fed three times each day. The number of dead fish was counted on a daily basis until two weeks after the injections.

The subject of data set [7] is Methicillin-resistant S. aureus ATCC BAA-41. The class given is cell-based.
Experimental: as §4, §5
In a further data set the test system is Pseudomonas aeruginosa A. The class given is cell-based.
The next data set relates to CpxR. Briefly: Quantitative real-time PCR. The class given is cell-based. To be noted: E. tarda.
From the text: as §2
(§3) Each group has 6 biological replicates. […] Gene-specific primers were designed with Primer-BLAST (NCBI).
A general note: In qPCR the cycle at which signal appears reflects the starting amount.

A further data set has as its system RpoE. Briefly: Quantitative real-time PCR. Type of data set: cell-based. Particulars: E. tarda, 6.8 μM, 1 hr.
From the text: as §2, §3

A further data set concerns E. coli. The class given is cell-based.
Data set [8] relates to Escherichia coli ATCC 10536. Type of data set: cell-based.
Experimental: as §4, §5
The test system of data set [9] is Streptococcus pyogenes ATCC 14289. Type of data set: cell-based.
Experimental: as §4, §5

Structures are written as SMILES. Peptide text beside a SMILES is read from it.

Experimental for Edwardsiella tarda PE210: as §4, §5

Consider `CC[C@H](C)[C@H](N)C(=O)N[C@@H](CCCNC(=N)N)C(=O)N[C@H](C(=O)N[C@H](C(=O)N[C@@H](CC(C)C)C(=O)N[C@@H](CCCNC(=N)N)C(=O)N[C@@H](C)C(=O)N[C@@H](CCC(N)=O)C(=O)NCC(=O)N[C@@H](C)C(=O)N[C@@H](CC(C)C)C(=O)N[C@@H](CCCCN)C(=O)N[C@H](C(=O)O)[C@@H](C)CC)[C@@H](C)CC)[C@@H](C)CC` [Peptide A, IRIILRAQGALKI] (H-IRIILRAQGALKI-OH; N-terminus and C-terminus assumed), for which the MICs worked out at 13.7 µM in [1]; 13.7 µM in data set [3]; 5.5 µM in [4]; 64 µM in [5]; 34.1 µM in [6]; 6.8 µM against Edwardsiella tarda PE210. Further, the MICs in data set [7] stood at 21.8 µM; in the data set on Pseudomonas aeruginosa A, 34.1 µM; in data set [8], 3.4 µM; in [9] it was 34.1 µM. The adverse effect result in data set [2] is “no adverse effect”. Also, in the data set on E. coli PQ37, the “SOS response (induction factor)” value is on record as “consistent induction of SOS response”. In the data set with E. tarda (one day post injection, Peptide A 1.37 mM, Ampicillin 5.7 mM, 1 μl), the initial survival rate was 85%. The “effect on E. tarda infection / surviving fish” value in the data set on E. tarda (two weeks after infection) is listed as “still higher than the controls”. Further, the “CpxR mRNA expression” value in the data set on CpxR (Peptide A 6.8 μM, 1 hr) is reported as “significantly reduced”. In the data set with CpxR (Peptide A+Ampicillin (3.4 μM; 71.5 μM), 1 hour), the “CpxR expression induced by ampicillin” value was “revert the induction of CpxR expression”. Further, the “RpoE mRNA expression” value in the data set with RpoE is reported as “significantly induced”. In addition, in the data set with E. coli, the “MIC for E. coli” value came to 3.4 µM.

The record behind these values is patent US11065296B2, “Antimicrobial peptide, its analog and use” (City University of Hong Kong, priority 2018, dated 2021).
